Our source for the IC50 values is US9156830B2, “Heterocyclic compounds” (SHIONOGI & CO., LTD., priority 2011, dated 2015).

Assay [1] deals with T1, Human TRPV1 (Homo sapiens (Human), UniProt Q8NER1). As to the kind of experiment: Capsaicin-Based Assay (Protocol 2), TRPV1/CHO cells. The assay is classed as cell-based. The note with it: capsaicin 100 nM final. The protocol:
The TRPV1/CHO cell line was generated as described below. […] Subsequently, the cells were loaded by incubation in 0.1 mL of wash buffer containing Fluo-4 at 3 μM final concentration. After 1 hour, the cells were washed twice with 0.2 mL wash buffer and resuspended in 0.1 mL wash buffer. The plates were then transferred to a Fluorescence Imaging Plate Reader (Molecular Devices). Fluorescence intensity was monitored for 15 seconds to establish a baseline. […] The final concentration of the compound was adjusted to range from 100 μM to 1.5625 μM. […] Data were collected over the entire time course and analyzed using Excel and the curve-fitting formula GraphPad Prism.

In assay [2] the target is T1, Human TRPV1. As to the kind of experiment: pH-Based Assay (Protocol 2), Ca2+ response in TRPV1/CHO cells. In kind it is cell-based. The following applies: pH 5.0-5.1 (H2SO4). On the procedure: The TRPV1/CHO cell line was generated as described below. The following assay was conducted to determine the concentration of sulfuric acid that would give rise to a pH that induces a […] response optimal to test compounds for their effect on TRPV1. […] For one half of a 96-well plate one agonist solution was used, for the other half the other agonist solution. The agonist solutions were obtained by diluting sulfuric acid (H2SO4, 1 M) with measuring buffer. The concentrations for the two agonist solutions were determined as described above in Section 2 of Protocol 2. The sulfuric acid concentrations between the two agonist solutions differed by 0.5 mM. […] The thereby-obtained solutions were further diluted in measuring buffer (1:100) as 10× stock serial dilutions with a DMSO concentration of 1%. 10 μL of a 10× stock was added into each well at step 3.3.(4) of Protocol 2. Thus, the final concentrations of antagonists ranged from 1000-0.977 nM containing 0.1% DMSO (FIG. 3B). […] (3) The cells were washed twice with 150 μL of measuring buffer (mentioned in 2.2.(3) of Protocol 2, no probenecid). The wells were subsequently refilled with 70 μL of measuring buffer. (4) Either 10 μL of measuring buffer or 10 μL of 10× stock serial dilution of test compound (described in 3.2. above) were applied to each well. Usually, only one test compound was tested per 96-well plate. The number of replicates per 96-well plate for a particular antagonist at a particular concentration was 7×2 since two different sulfuric acid concentrations were used per 96-well plate (N=7×2)(FIG. 3). Step (5) was the same as 2.2.(4) above. (6) Fura-2 fluorescent intensity was monitored as described in 2.2.(5) above. […] Steps (7) and (8) were as described in 2.2.(6) and 2.2.(7) above, respectively. […] FIG. 3) were measured one by one using a portable pH meter.

Where [3] appears, read: Fluo-4, read-out: IC50 value by the Capsaicin-Based Assay.
Where [4] appears, read: Fura-2, read-out: IC50 value by the pH-Based Assay.
The mark [5] stands for this setting: Fluo-4, read-out: TRPV1 IC50 Potency Capsaicin-Based Assay IC50.
The mark [6] stands for this setting: Fura-2, read-out: TRPV1 IC50 Potency pH-Based Assay IC50.

T1 sequence (Q8NER1 whole entry): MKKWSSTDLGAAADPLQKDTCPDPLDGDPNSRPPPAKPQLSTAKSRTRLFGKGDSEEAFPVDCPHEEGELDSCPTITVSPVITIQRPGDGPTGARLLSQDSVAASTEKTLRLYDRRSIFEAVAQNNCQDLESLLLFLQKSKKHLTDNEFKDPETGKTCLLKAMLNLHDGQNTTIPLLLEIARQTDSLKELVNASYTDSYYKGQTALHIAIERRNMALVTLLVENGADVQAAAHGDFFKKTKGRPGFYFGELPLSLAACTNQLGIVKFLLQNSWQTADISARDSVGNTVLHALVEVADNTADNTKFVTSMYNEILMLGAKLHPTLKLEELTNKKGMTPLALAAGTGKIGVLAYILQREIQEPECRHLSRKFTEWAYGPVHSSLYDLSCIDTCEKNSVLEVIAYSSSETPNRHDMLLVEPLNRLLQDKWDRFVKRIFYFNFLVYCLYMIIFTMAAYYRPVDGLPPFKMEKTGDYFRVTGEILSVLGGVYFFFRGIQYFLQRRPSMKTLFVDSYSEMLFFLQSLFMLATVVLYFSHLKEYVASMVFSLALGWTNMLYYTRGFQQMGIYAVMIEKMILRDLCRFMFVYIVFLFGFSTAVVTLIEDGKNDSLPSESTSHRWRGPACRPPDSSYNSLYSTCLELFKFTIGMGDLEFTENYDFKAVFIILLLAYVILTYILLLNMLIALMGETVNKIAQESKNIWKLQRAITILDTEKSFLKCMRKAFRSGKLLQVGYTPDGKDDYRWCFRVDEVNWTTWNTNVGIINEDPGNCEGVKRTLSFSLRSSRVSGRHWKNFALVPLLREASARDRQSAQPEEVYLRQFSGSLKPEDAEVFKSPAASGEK

`O=C(Nc1ccc(C(F)(F)F)cn1)N1CCC(F)(c2ncc(-c3cc(CO)on3)cc2Cl)CC1` [Compound I-53, 4-(3-chloro-5-(5-(hydroxymethyl)isoxazol-3-yl)pyridin-2-yl)-4-fluoro-N-(5-(trifluoromethyl)pyridin-2-yl)piperidine-1-carboxamide]: the concentration for half-maximal inhibition (IC50) at Human TRPV1 [1] (setting [3]) and at Human TRPV1 [2] (setting [4]) was at most 0.1 µM each time.

With `Cc1cc(-c2ccc(CO)o2)cnc1C1(F)CCN(C(=O)Nc2ccc(C(F)(F)F)c(Cl)c2)CC1` [Compound I-39, N-(3-chloro-4-(trifluoromethyl)phenyl)-4-fluoro-4-(5-(5-(hydroxymethyl)furan-2-yl)-3-methylpyridin-2-yl)piperidine-1-carboxamide], at Human TRPV1 [1] (setting [5]), the IC50 amounted to 0.342 µM.

Regarding `O=C(Nc1ccc(C(F)(F)F)c(Cl)c1)N1CCC(F)(c2ncc(-c3cc(CO)on3)cc2Cl)CC1` [Compound I-52, N-(3-chloro-4-(trifluoromethyl)phenyl)-4-(3-chloro-5-(5-(hydroxymethyl)isoxazol-3-yl)pyridin-2-yl)-4-fluoropiperidine-1-carboxamide], the IC50 on Human TRPV1 [1] (setting [3]) and at Human TRPV1 [2] (setting [4]) was at most 0.1 µM throughout.

In the case of `Cc1cc(NC(=O)N2CC=C(c3ncc(Cc4ncco4)cc3Cl)CC2)ccc1C(F)(F)F` [Compound I-80, 4-(3-chloro-5-(oxazol-2-ylmethyl)pyridin-2-yl)-N-(3-methyl-4-(trifluoromethyl)phenyl)-5,6-dihydropyridine-1(2H)-carboxamide], the IC50 on Human TRPV1 [1] (setting [5]) worked out at 0.223 µM.

As for `O=C(Nc1ccc(C(F)(F)F)c(Cl)c1)N1CC=C(c2ccc(-c3nnc(CO)o3)cc2Cl)CC1` [Compound I-75, 4-(2-chloro-4-(5-(hydroxymethyl)-1,3,4-oxadiazol-2-yl)phenyl)-N-(3-chloro-4-(trifluoromethyl)phenyl)-5,6-dihydropyridine-1(2H)-carboxamide], the concentration for half-maximal inhibition (IC50) at Human TRPV1 [1] (setting [3]) and on Human TRPV1 [2] (setting [4]) was at most 0.1 µM each time.

As for `Cc1cc(NC(=O)N2CC=C(c3ccc(-c4nnc(CO)o4)cc3Cl)CC2)ccc1C(F)(F)F` [Compound I-76, 4-(2-chloro-4-(5-(hydroxymethyl)-1,3,4-oxadiazol-2-yl)phenyl)-N-(3-methyl-4-(trifluoromethyl)phenyl)-5,6-dihydropyridine-1(2H)-carboxamide], the IC50 at Human TRPV1 [1] (setting [3]) is at most 0.1 µM; on Human TRPV1 [2] (setting [6]) it was 0.0021 µM.

Turning to `O=C(Nc1ccc(C(F)(F)F)c(Cl)c1)N1CC=C(c2ncc(Cc3nnc(CO)o3)cc2Cl)CC1` [Compound I-77, N-(3-chloro-4-(trifluoromethyl)phenyl)-4-(3-chloro-5-((5-(hydroxymethyl)-1,3,4-oxadiazol-2-yl)methyl)pyridin-2-yl)-5,6-dihydropyridine-1(2H)-carboxamide], the IC50 at Human TRPV1 [1] (setting [5]) amounted to 0.0388 µM.

Turning to `O=C(Nc1ccc(C(F)(F)F)cn1)N1CCC(F)(c2ncc(-c3nc(CO)no3)cc2Cl)CC1` [Compound I-57, 4-(3-chloro-5-(3-(hydroxymethyl)-1,2,4-oxadiazol-5-yl)pyridin-2-yl)-4-fluoro-N-(5-(trifluoromethyl)pyridin-2-yl)piperidine-1-carboxamide], at Human TRPV1 [1] (setting [5]), the IC50 was 0.0166 µM.

As to `O=C(Nc1ccc(C(F)(F)F)c(Cl)c1)N1CC=C(c2ncc(N3C[C@@H](O)[C@@H](O)C3=O)cc2Cl)CC1` [Compound I-71, N-(3-chloro-4-(trifluoromethyl)phenyl)-4-(3-chloro-5-((3R,4R)-3,4-dihydroxy-2-oxopyrrolidin-1-yl)pyridin-2-yl)-5,6-dihydropyridine-1(2H)-carboxamide], the concentration for half-maximal inhibition (IC50) at Human TRPV1 [1] (setting [5]) was 0.322 µM.

Turning to `O=C(Nc1ccc(C(F)(F)F)c(Cl)c1)N1CC=C(c2ncc(-c3nnc(CCO)o3)cc2Cl)CC1` [Compound I-50, N-(3-chloro-4-(trifluoromethyl)phenyl)-4-(3-chloro-5-(5-(2-hydroxyethyl)-1,3,4-oxadiazol-2-yl)pyridin-2-yl)-5,6-dihydropyridine-1(2H)-carboxamide], at Human TRPV1 [2] (setting [6]), the concentration for half-maximal inhibition (IC50) is 0.0608 µM.

Regarding `Cc1cc(NC(=O)N2CC=C(c3ncc(-c4nnc(CO)o4)cc3C)CC2)ccc1C(F)(F)F` [Compound I-44, 4-(5-(5-(hydroxymethyl)-1,3,4-oxadiazol-2-yl)-3-methylpyridin-2-yl)-N-(3-methyl-4-(trifluoromethyl)phenyl)-5,6-dihydropyridine-1(2H)-carboxamide], the concentration for half-maximal inhibition (IC50) is at most 0.1 µM at Human TRPV1 [1] (setting [3]) and 0.001 µM on Human TRPV1 [2] (setting [6]).

With `Cc1nnc(-c2cnc(C3=CCN(C(=O)Nc4ccc(C(C)(C)C)cc4)CC3)c(Cl)c2)o1` [Compound I-7], on Human TRPV1 [2] (setting [6]), the IC50 is 0.0005 µM.

`Cc1cc(-c2nnc(CO)o2)cnc1C1=CCN(C(=O)Nc2ccc(C(F)(F)F)c(Cl)c2)CC1` [Compound I-43, N-(3-chloro-4-(trifluoromethyl)phenyl)-4-(5-(5-(hydroxymethyl)-1,3,4-oxadiazol-2-yl)-3-methylpyridin-2-yl)-5,6-dihydropyridine-1(2H)-carboxamide]: the IC50 on Human TRPV1 [1] (setting [3]) and on Human TRPV1 [2] (setting [4]) was at most 0.1 µM throughout.

`O=C(NCCNc1ncc(-c2nnc(CO)o2)cc1Cl)Nc1ccc(C(F)(F)F)c(Cl)c1` [Compound I-60, 1-(3-chloro-4-(trifluoromethyl)phenyl)-3-(2-(3-chloro-5-(5-(hydroxymethyl)-1,3,4-oxadiazol-2-yl)pyridin-2-ylamino)ethyl) urea]: at Human TRPV1 [1] (setting [5]), the 50% inhibitory concentration (IC50) stood at 0.357 µM.

As to `O=C(C#Cc1ccc(-c2nnc(CO)o2)cc1Cl)Nc1ccc(C(F)(F)F)c(Cl)c1` [Compound I-81, 3-(2-chloro-4-(5-(hydroxymethyl)-1,3,4-oxadiazol-2-yl)phenyl)-N-(3-chloro-4-(trifluoromethyl)phenyl)propiolamide], on Human TRPV1 [2] (setting [6]), the concentration for half-maximal inhibition (IC50) came to 0.0128 µM.

`Cc1cc(NC(=O)N2CCC(F)(c3ncc(-c4cc(CO)on4)cc3Cl)CC2)ccc1C(F)(F)F` [Compound I-54, 4-(3-chloro-5-(5-(hydroxymethyl)isoxazol-3-yl)pyridin-2-yl)-4-fluoro-N-(3-methyl-4-(trifluoromethyl)phenyl)piperidine-1-carboxamide]: the half-maximal inhibitory concentration (IC50) on Human TRPV1 [1] (setting [3]) and on Human TRPV1 [2] (setting [4]) was at most 0.1 µM in each case.

`O=C(Nc1ccc(C(F)(F)F)c(Cl)c1)C1=CCN(c2ncc(-c3nnc(CO)o3)cc2Cl)CC1` [Compound I-67, N-(3-chloro-4-(thloro-5-(5-(hydroxymethyl)-1,3,4-oxadiazol-2-yl)pyridin-2-yl)-1,2,3,6-terifluoromethyl)phenyl)-1-(3-ctrahydropyridine-4-carboxamide]: the concentration for half-maximal inhibition (IC50) at Human TRPV1 [1] (setting [3]) and at Human TRPV1 [2] (setting [4]) was at most 0.1 µM throughout.
